Results: US20100137449A1, “SUBSTITUTED 1,3-CYCLOPENTADIONE MULTI-TARGET PROTEIN KINASE MODULATORS OF CANCER, ANGIOGENESIS AND THE INFLAMMATORY PATHWAYS ASSOCIATED THEREWITH” (METAPROTEOMICS, LLC, priority 2007, published 2010)

Tests used:
Assay in all cases: KinaseProfiler Assay
Blk(m) = Blk(m) (Mus musculus, UniProt P16277)
CK1γ2(h) = CK1γ2(h) (Homo sapiens, UniProt P78368)
FGFR1(V561M)(h) = FGFR1(V561M)(h) (Homo sapiens, UniProt P11362, V561M)
Fyn(h) = Fyn(h) (Homo sapiens, UniProt P06241)
JAK3(h) = target: T1, JAK3(h) (Homo sapiens, UniProt P52333)
T1 sequence (P52333 1-1124): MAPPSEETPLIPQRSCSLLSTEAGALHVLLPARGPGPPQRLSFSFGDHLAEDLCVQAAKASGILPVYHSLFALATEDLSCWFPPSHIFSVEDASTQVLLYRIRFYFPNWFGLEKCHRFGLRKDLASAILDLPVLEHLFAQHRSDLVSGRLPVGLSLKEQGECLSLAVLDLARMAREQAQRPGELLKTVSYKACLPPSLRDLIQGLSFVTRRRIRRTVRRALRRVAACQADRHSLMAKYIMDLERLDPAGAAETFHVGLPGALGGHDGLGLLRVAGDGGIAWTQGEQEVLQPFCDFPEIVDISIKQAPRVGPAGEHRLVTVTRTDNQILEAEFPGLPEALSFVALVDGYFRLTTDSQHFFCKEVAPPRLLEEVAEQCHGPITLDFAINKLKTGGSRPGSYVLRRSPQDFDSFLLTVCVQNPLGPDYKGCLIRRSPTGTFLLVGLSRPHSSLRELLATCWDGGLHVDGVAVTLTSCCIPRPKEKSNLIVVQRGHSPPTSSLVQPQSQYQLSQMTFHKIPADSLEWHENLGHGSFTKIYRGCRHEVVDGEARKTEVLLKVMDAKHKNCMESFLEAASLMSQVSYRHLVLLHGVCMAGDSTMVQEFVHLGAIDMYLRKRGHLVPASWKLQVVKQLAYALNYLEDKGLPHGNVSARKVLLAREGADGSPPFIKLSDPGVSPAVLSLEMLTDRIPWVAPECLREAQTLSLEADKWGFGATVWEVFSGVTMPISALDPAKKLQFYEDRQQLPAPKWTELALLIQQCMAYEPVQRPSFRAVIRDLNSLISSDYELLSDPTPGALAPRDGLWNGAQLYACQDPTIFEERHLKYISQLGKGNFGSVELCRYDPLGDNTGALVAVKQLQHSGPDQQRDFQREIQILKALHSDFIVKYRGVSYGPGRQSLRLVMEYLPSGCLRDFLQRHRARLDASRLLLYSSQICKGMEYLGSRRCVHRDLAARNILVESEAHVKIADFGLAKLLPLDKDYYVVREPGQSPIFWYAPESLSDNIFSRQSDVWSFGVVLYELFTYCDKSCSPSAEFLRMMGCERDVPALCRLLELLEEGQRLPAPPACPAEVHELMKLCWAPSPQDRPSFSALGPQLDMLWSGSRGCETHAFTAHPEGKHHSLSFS

MAPKAP-K2(h) = MAPKAP-K2(h) (Homo sapiens, UniProt P49137)
NEK2(h) = target: T2, NEK2(h) (Homo sapiens, UniProt P51955)
T2 sequence (P51955 1-445): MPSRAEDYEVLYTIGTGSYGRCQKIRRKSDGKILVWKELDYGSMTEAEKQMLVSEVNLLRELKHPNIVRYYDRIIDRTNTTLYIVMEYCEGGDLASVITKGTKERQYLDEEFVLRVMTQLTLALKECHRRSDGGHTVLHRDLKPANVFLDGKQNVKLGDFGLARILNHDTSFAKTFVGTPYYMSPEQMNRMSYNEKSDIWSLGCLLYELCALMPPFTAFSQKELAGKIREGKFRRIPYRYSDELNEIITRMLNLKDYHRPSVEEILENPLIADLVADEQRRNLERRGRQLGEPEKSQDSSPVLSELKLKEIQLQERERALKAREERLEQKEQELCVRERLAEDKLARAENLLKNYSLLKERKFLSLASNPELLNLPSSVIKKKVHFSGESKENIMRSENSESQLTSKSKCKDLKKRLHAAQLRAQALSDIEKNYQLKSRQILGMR

Rsk2(h) = Rsk2(h) (Homo sapiens, UniProt P51812)
Sequence of Rsk2(h) (P51812 whole entry): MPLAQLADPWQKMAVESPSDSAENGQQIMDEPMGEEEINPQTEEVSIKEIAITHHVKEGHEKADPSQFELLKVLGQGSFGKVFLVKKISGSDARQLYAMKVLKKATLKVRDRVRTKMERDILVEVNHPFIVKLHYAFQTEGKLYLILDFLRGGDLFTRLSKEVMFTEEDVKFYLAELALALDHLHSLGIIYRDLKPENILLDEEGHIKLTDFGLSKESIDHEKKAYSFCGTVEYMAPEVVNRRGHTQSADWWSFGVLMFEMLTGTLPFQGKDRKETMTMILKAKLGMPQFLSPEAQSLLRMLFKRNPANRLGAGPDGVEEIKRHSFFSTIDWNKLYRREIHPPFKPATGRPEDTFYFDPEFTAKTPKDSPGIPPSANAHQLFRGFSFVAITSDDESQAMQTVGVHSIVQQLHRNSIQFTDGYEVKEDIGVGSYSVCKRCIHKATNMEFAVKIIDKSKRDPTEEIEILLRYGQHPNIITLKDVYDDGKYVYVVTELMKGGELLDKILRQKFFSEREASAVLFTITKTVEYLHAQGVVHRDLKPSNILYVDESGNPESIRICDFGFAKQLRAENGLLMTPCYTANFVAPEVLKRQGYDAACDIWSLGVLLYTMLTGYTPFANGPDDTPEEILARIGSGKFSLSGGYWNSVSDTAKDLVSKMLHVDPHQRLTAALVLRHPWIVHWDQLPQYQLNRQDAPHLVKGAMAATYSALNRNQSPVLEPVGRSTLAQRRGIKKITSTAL

Sequence of FGFR1(V561M)(h) (P11362 22-822 V561M): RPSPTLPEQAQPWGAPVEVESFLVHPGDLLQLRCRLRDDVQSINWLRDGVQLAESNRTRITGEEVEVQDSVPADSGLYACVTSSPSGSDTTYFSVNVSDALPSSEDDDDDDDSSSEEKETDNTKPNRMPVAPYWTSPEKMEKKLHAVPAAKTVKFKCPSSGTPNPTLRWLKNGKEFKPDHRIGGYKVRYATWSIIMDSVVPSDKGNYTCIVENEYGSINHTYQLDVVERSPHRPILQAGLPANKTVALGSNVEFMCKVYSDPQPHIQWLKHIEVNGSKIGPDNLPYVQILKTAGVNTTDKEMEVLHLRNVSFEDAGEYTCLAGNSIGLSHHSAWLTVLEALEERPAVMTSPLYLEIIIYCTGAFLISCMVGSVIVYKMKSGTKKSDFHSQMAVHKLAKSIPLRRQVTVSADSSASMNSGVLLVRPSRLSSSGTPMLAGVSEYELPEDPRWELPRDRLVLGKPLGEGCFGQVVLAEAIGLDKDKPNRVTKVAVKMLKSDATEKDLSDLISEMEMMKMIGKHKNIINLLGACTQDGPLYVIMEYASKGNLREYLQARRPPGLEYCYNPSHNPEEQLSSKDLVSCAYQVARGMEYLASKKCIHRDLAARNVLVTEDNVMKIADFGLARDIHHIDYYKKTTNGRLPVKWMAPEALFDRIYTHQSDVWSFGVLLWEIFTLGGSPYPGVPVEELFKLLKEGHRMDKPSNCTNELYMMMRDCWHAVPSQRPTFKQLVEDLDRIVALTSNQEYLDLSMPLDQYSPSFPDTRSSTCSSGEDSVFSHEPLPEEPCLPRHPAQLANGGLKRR
Sequence of CK1γ2(h) (P78368 whole entry): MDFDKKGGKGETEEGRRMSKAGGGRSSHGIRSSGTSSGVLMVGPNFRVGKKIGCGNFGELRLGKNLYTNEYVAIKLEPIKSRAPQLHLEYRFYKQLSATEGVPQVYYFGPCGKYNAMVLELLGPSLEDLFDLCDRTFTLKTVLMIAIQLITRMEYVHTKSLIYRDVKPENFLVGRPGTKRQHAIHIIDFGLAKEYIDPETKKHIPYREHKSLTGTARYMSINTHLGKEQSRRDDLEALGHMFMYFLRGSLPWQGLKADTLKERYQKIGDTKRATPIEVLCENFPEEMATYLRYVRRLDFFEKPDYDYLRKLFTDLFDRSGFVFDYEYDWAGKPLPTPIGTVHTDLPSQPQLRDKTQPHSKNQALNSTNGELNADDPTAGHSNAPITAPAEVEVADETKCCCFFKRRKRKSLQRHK
Sequence of MAPKAP-K2(h) (P49137 whole entry): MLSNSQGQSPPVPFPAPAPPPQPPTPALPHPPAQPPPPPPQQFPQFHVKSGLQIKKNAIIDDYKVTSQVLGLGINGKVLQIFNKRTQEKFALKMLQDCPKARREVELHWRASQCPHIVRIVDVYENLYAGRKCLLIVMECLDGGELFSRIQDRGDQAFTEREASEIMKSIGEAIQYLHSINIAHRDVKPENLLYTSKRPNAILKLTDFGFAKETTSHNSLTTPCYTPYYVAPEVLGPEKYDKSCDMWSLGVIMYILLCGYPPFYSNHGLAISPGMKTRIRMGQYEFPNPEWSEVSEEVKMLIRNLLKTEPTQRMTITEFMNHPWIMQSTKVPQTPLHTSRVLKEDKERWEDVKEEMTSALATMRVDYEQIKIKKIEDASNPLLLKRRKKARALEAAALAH
Sequence of Blk(m) (P16277 whole entry): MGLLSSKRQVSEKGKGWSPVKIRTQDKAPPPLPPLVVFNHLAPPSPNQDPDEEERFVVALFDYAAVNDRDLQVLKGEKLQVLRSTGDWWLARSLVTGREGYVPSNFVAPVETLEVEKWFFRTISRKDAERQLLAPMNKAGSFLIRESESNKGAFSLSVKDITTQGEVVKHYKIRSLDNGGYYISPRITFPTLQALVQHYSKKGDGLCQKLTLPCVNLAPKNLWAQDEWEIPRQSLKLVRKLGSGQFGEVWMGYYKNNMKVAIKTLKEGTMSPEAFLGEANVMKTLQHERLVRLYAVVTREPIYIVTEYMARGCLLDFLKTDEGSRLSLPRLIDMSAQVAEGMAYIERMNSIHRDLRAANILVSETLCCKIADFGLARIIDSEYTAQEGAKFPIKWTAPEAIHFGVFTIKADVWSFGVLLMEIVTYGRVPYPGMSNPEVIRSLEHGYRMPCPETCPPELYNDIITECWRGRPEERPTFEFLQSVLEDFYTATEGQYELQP
Sequence of Fyn(h) (P06241 whole entry): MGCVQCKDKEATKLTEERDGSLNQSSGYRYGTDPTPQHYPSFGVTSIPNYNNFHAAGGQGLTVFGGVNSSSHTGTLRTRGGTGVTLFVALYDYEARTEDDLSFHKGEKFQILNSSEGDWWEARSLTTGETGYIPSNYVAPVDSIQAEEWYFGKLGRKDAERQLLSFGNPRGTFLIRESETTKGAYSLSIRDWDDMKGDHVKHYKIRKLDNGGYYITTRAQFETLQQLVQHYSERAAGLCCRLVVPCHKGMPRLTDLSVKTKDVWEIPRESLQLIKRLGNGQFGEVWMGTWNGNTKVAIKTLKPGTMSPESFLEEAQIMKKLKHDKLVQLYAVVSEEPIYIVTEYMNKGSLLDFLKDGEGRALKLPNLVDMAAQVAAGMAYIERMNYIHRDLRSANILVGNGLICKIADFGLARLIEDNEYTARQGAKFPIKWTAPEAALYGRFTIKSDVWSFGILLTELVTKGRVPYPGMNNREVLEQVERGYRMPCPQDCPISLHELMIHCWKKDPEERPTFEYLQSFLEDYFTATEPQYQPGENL

CC(C)CCC(=O)[C@]1(O)C(O)=C(C(=O)C(C)C)C(=O)[C@H]1CCC(C)C [TH2, tetrahydroiso-cohumulone]
kinase inhibition (Blk(m); 1 μg/ml): 108% of control
kinase inhibition (Blk(m); 5 μg/ml): 115% of control
kinase inhibition (Blk(m); 25 μg/ml): 96% of control
kinase inhibition (Blk(m); 50 μg/ml): 72% of control
kinase inhibition (Blk(m); 100 μg/ml): 53% of control
kinase inhibition (CK1γ2(h); 1 μg/ml): 103% of control
kinase inhibition (CK1γ2(h); 5 μg/ml): 96% of control
kinase inhibition (CK1γ2(h); 25 μg/ml): 79% of control
kinase inhibition (CK1γ2(h); 50 μg/ml): 54% of control
kinase inhibition (CK1γ2(h); 100 μg/ml): 49% of control
kinase inhibition (FGFR1(V561M)(h); 1 μg/ml): 105% of control
kinase inhibition (FGFR1(V561M)(h); 5 μg/ml): 107% of control
kinase inhibition (FGFR1(V561M)(h); 25 μg/ml): 95% of control
kinase inhibition (FGFR1(V561M)(h); 50 μg/ml): 79% of control
kinase inhibition (FGFR1(V561M)(h); 100 μg/ml): 75% of control
kinase inhibition (Fyn(h); 1 μg/ml): 103% of control
kinase inhibition (Fyn(h); 5 μg/ml): 105% of control
kinase inhibition (Fyn(h); 25 μg/ml): 103% of control
kinase inhibition (Fyn(h); 50 μg/ml): 105% of control
kinase inhibition (Fyn(h); 100 μg/ml): 89% of control
kinase inhibition (JAK3(h); 1 μg/ml): 74% of control
kinase inhibition (JAK3(h); 5 μg/ml): 67% of control
kinase inhibition (JAK3(h); 25 μg/ml): 62% of control
kinase inhibition (JAK3(h); 50 μg/ml): 53% of control
kinase inhibition (JAK3(h); 100 μg/ml): 35% of control
kinase inhibition (MAPKAP-K2(h); 1 μg/ml): 116% of control
kinase inhibition (MAPKAP-K2(h); 5 μg/ml): 104% of control
kinase inhibition (MAPKAP-K2(h); 25 μg/ml): 104% of control
kinase inhibition (MAPKAP-K2(h); 50 μg/ml): 74% of control
kinase inhibition (MAPKAP-K2(h); 100 μg/ml): 73% of control
kinase inhibition (NEK2(h); 1 μg/ml): 106% of control
kinase inhibition (NEK2(h); 5 μg/ml): 109% of control
kinase inhibition (NEK2(h); 25 μg/ml): 105% of control
kinase inhibition (NEK2(h); 50 μg/ml): 102% of control
kinase inhibition (NEK2(h); 100 μg/ml): 72% of control
kinase inhibition (Rsk2(h); 1 μg/ml): 102% of control
kinase inhibition (Rsk2(h); 5 μg/ml): 100% of control
kinase inhibition (Rsk2(h); 25 μg/ml): 81% of control
kinase inhibition (Rsk2(h); 50 μg/ml): 43% of control
kinase inhibition (Rsk2(h); 100 μg/ml): 32% of control
